This note sets out measurements from patent publication US20250008957A1, “METHOD OF IMPROVING PLANT GROWTH” (UPL LIMITED, priority 2021, published 2025).

In assay [1] the test system is corn seeds. Description: Seed treatment of corn seeds with flonicamid combinations: root length and fresh weight of seedlings. The format is in vivo, Zea mays. Conditions: 5 ml/kg of seed; for Fresh weight: seedlings. As for the experimental part:
(§1) 7 kg of untreated clean seeds of Zea mays were collected. The seeds were 5 mixed thoroughly in a tray to make them homogeneous. 21 sub-samples of 300 g each were prepared. A polythene bag was used for the treatment of each sample with flonicamid combinations. The formulation was used at a dosage of 5 ml/kg of seed. Before treating, the seeds were checked for their initial moisture content and minimum germination percentage. After the treatment, the treated seeds were dried in a hot air chamber having temperature of 40-43° C. to maintain their original moisture content. Table 5 discloses the effect on root length and Table 6 discloses fresh weight of the seedlings.

Assay [2] relates to corn seeds. Description: Germination index of treated corn seeds by petri dish method. Type of assay: in vivo, Zea mays. The settings on record: 5 ml/kg of seed. As for the experimental part:
as §1, with “were” for “were 5”, “Table 10” for “Table 5”, “the germination index” for “the effect on root length and Table 6 discloses fresh weight”, “of corn seeds by petri dish method.” for “of the seedlings.”

On to `CC1=C(C(=O)Nc2ccccc2)SCCO1` [Carboxin 200 g/L, carboxin], for which the Root length with corn seeds [1] is recorded as 14.25 cm.
Turning to `CNC(=O)c1cc(Cl)cc(C)c1NC(=O)c1cc(Br)nn1-c1ncccc1Cl` [Chlorantraniliprole 120 g/L, Chlorantraniliprole], the Germination index with corn seeds [2] (4th day) is recorded as 7; with corn seeds [2] (7th day) it was 1.
In the case of `CNC(=O)c1cc(C#N)cc(C)c1NC(=O)c1cc(Br)nn1-c1ncccc1Cl` [Cyantraniliprole 120 g/L, Cyantraniliprole], the Germination index in the assay with corn seeds [2] (4th day) is 7. Besides, the Germination index in the assay with corn seeds [2] (7th day) is reported as 3. Moreover, in the assay with corn seeds [1], the Root length came out at 14.25 cm and the Fresh weight is listed as 20.92 g.
As for `N#CCNC(=O)c1cnccc1C(F)(F)F` [Flonicamid 240 g/L, N-cyanomethyl-4-trifluoromethylnicotinamide], the Germination index is 7 in the assay with corn seeds [2] (4th day) and 3 in the assay with corn seeds [2] (7th day).
Turning to `N#CCNC(=O)c1cnccc1C(F)(F)F` [Flonicamid 360 g/L, N-cyanomethyl-4-trifluoromethylnicotinamide], in the assay on corn seeds [2] (4th day), the Germination index stood at 7. Moreover, the Germination index with corn seeds [2] (7th day) was found to be 1. For the same compound, in the assay on corn seeds [1], the Root length was determined as 12.5 cm and the Fresh weight was determined as 22.73 g.
As to `N#Cc1c[nH]cc1-c1cccc2c1OC(F)(F)O2` [Fludioxonil 25 g/L, fludioxonil], the Germination index with corn seeds [2] (4th day) is given as 8; in the assay on corn seeds [2] (7th day) it was 1. Further, in the assay with corn seeds [1], the Root length turned out to be 14 cm.
For `CC(C)C1CCC(Cc2ccc(Cl)cc2)C1(O)Cn1cncn1` (centres unmarked) [Ipconazole 25 g/L, ipconazole], the Germination index in the assay on corn seeds [2] (4th day) turned out to be 7; in the assay with corn seeds [2] (7th day) it was 3.
Turning to `COCC(=O)N(c1c(C)cccc1C)C(C)C(=O)OC` (centres unmarked) [Metalayxl 50 g/L, metalaxyl], the Germination index in the assay with corn seeds [2] (4th day) came out at 7. In the assay with corn seeds [2] (7th day), the Germination index turned out to be 3. In addition, in the assay with corn seeds [1], the Root length is reported as 15 cm and the Fresh weight is listed as 25.72 g.
The corresponding values for `CN1COCN(Cc2cnc(Cl)s2)/C1=N\[N+](=O)[O-]` [Thiamethoxam] are 7, 2, 11.75 cm and 19.31 g.
